What was measured:
Type in all cases: in vivo
[1] = tested on: transplanted rice; experiment: Test Example 1: preemergence treatment under submerged conditions, effect on crop; conditions: dose 2.52 g/a
Procedure, shortened: (§1)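 Flooded-paddy preemergence assay; EC diluted with water, surface-applied at weed seeding; doses g/a; rice transplanted at 2.5 leaves; 0–5 mortality score after 3 weeks.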

[2] = tested on: ducksalad; experiment: Test Example 2: herbicidal effects during the vegetation period under submerged conditions; conditions: treatment during the vegetation period under submerged conditions; dose 2.52 g/a
Procedure, shortened: (§2)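 Barnyardgrass, bulrush and ducksalad were co-sown in alluvial soil flooded to 4 cm and grown in a greenhouse at 25 to 30° C. At the 1- or 2-leaf stage, water-diluted emulsifiable concentrates went onto the water surface at set doses (g/a). Herbicidal effect was scored three weeks later on a graded scale.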

[3] = tested on: bulrush; experiment: as above; conditions: treatment during the vegetation period under submerged conditions; dose 2.52 g/a
Procedure, shortened: as §2

[4] = tested on: barnyardgrass; experiment: as above; conditions: treatment during the vegetation period under submerged conditions; dose 2.52 g/a
Procedure, shortened: as §2

[5] = tested on: Italian ryegrass; experiment: Test Example 3: herbicidal effects in soil treatment
Procedure, shortened: (§3)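 Seeds were sown in sterilized diluvial soil and covered with about 1.5 cm of soil. Compounds, formulated as emulsifiable concentrates and diluted with water, were sprayed evenly over the soil surface at set doses in g/a. Herbicidal effect was scored on a rating scale three weeks later.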

[6] = tested on: common chickweed; experiment: as above
Procedure, shortened: as §3

[7] = tested on: water foxtail; experiment: as above
Procedure, shortened: as §3

[8] = tested on: wild oat; experiment: as above
Procedure, shortened: as §3

[9] = tested on: posumbu knotweed; experiment: as above; conditions: dose 3.2 g/a
Procedure, shortened: as §3

[10] = tested on: common lambsquater; experiment: as above
Procedure, shortened: as §3

[11] = tested on: redroot pigweed; experiment: as above
Procedure, shortened: as §3

[12] = tested on: velvetleaf; experiment: as above; conditions: dose 3.2 g/a
Procedure, shortened: as §3

[13] = tested on: large crabgrass; experiment: as above
Procedure, shortened: as §3

[14] = tested on: common ragweed; experiment: as above; conditions: dose 3.2 g/a
Procedure, shortened: as §3

[15] = tested on: barnyardgrass; experiment: as above
Procedure, shortened: as §3

[16] = tested on: beadstraw; experiment: as above
Procedure, shortened: as §3

[17] = tested on: giant foxtail; experiment: as above
Procedure, shortened: as §3

[18] = tested on: ducksalad; experiment: Test Example 1: herbicidal effects in preemergence treatment under submerged conditions; conditions: dose 2.52 g/a
Procedure, shortened: as §1

[19] = tested on: bulrush; experiment: as above; conditions: dose 2.52 g/a
Procedure, shortened: as §1

[20] = tested on: barnyardgrass; experiment: as above; conditions: dose 2.52 g/a
Procedure, shortened: as §1

[21] = tested on: Italian ryegrass; experiment: Test Example 4: herbicidal effect in foliage treatment; conditions: three weeks after application
Procedure, shortened: (§4)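 Seeds sown in sterilized diluvial soil under ~1.5 cm soil cover and grown 14 days in a greenhouse at 25 to 30° C. Emulsifiable concentrates diluted with water were then sprayed uniformly on foliage at predetermined doses (g/a). Herbicidal effect was scored three weeks after application on a graded evaluation scale.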

[22] = tested on: common chickweed; experiment: as above; conditions: three weeks after application
Procedure, shortened: as §4

[23] = tested on: water foxtail; experiment: as above; conditions: three weeks after application
Procedure, shortened: as §4

[24] = tested on: posumbu knotweed; experiment: as above; conditions: dose 3.2 g/a, three weeks after application
Procedure, shortened: as §4

[25] = tested on: common lambsquater; experiment: as above; conditions: three weeks after application
Procedure, shortened: as §4

[26] = tested on: redroot pigweed; experiment: as above; conditions: dose 3.2 g/a, three weeks after application
Procedure, shortened: as §4

[27] = tested on: velvetleaf; experiment: as above; conditions: dose 3.2 g/a, three weeks after application
Procedure, shortened: as §4

[28] = tested on: large crabgrass; experiment: as above; conditions: three weeks after application
Procedure, shortened: as §4

[29] = tested on: common ragweed; experiment: as above; conditions: three weeks after application
Procedure, shortened: as §4

[30] = tested on: barnyardgrass; experiment: as above; conditions: three weeks after application
Procedure, shortened: as §4

[31] = tested on: beadstraw; experiment: as above; conditions: three weeks after application
Procedure, shortened: as §4

[32] = tested on: giant foxtail; experiment: as above; conditions: three weeks after application
Procedure, shortened: as §4

[33] = tested on: wild oat; experiment: as above; conditions: dose 6.3 g/a, three weeks after application
Procedure, shortened: as §4

CCC(=O)N(c1ccccc1CN1COC2(CCCC2)CC1=O)S(=O)(=O)C(F)(F)F [II-65]
a: transplanted rice, effect on crop (evaluation scale 0-5) [1]: 0 (mortality of less than 5% (almost ineffective)) | C: ducksalad, herbicidal effect (evaluation scale 0-5) [2]: 5 (mortality of 90% or above (nearly complete death)) | B: bulrush, herbicidal effect (evaluation scale 0-5) [3]: 5 (mortality of 90% or above (nearly complete death)) | A: barnyardgrass, herbicidal effect (evaluation scale 0-5) [4]: 5 (mortality of 90% or above (nearly complete death)) | H: Italian ryegrass, herbicidal effect (evaluation scale 0-5) ([5]; dose 3.2 g/a): 5 (mortality of 90% or above (nearly complete death)) | N: common chickweed, herbicidal effect (evaluation scale 0-5) ([6]; dose 3.2 g/a): 5 (mortality of 90% or above (nearly complete death)) | G: water foxtail, herbicidal effect (evaluation scale 0-5) ([7]; dose 3.2 g/a): 5 (mortality of 90% or above (nearly complete death)) | F: wild oat, herbicidal effect (evaluation scale 0-5) ([8]; dose 3.2 g/a): 0 (mortality of less than 5% (almost ineffective)) | M: posumbu knotweed, herbicidal effect (evaluation scale 0-5) [9]: 4 (mortality of at least 70% and less than 90%) | L: common lambsquater, herbicidal effect (evaluation scale 0-5) ([10]; dose 3.2 g/a): 0 (mortality of less than 5% (almost ineffective)) | K: redroot pigweed, herbicidal effect (evaluation scale 0-5) ([11]; dose 3.2 g/a): 2 (mortality of at least 20% and less than 40%) | I: velvetleaf, herbicidal effect (evaluation scale 0-5) [12]: 3 (mortality of at least 40% and less than 70%) | D: large crabgrass, herbicidal effect (evaluation scale 0-5) ([13]; dose 3.2 g/a): 5 (mortality of 90% or above (nearly complete death)) | J: common ragweed, herbicidal effect (evaluation scale 0-5) [14]: 4 (mortality of at least 70% and less than 90%) | A: barnyardgrass, herbicidal effect (evaluation scale 0-5) ([15]; dose 3.2 g/a): 5 (mortality of 90% or above (nearly complete death)) | O: beadstraw, herbicidal effect (evaluation scale 0-5) ([16]; dose 3.2 g/a): 0 (mortality of less than 5% (almost ineffective)) | E: giant foxtail, herbicidal effect (evaluation scale 0-5) ([17]; dose 3.2 g/a): 5 (mortality of 90% or above (nearly complete death)) | C: ducksalad, herbicidal effect (evaluation scale 0-5) [18]: 5 (mortality of 90% or above (nearly complete death)) | B: bulrush, herbicidal effect (evaluation scale 0-5) [19]: 5 (mortality of 90% or above (nearly complete death)) | A: barnyardgrass, herbicidal effect (evaluation scale 0-5) [20]: 5 (mortality of 90% or above (nearly complete death)) | H: Italian ryegrass, herbicidal effect ([21]; dose 3.2 g/a): 3 (mortality of at least 40% and less than 70%) | N: common chickweed, herbicidal effect ([22]; dose 3.2 g/a): 5 (mortality of 90% or above (nearly complete death)) | G: water foxtail, herbicidal effect ([23]; dose 3.2 g/a): 5 (mortality of 90% or above (nearly complete death)) | M: posumbu knotweed, herbicidal effect [24]: 3 (mortality of at least 40% and less than 70%) | L: common lambsquater, herbicidal effect ([25]; dose 3.2 g/a): 2 (mortality of at least 20% and less than 40%) | K: redroot pigweed, herbicidal effect [26]: 0 (mortality of less than 5% (almost ineffective)) | I: velvetleaf, herbicidal effect [27]: 3 (mortality of at least 40% and less than 70%) | D: large crabgrass, herbicidal effect ([28]; dose 3.2 g/a): 3 (mortality of at least 40% and less than 70%) | J: common ragweed, herbicidal effect ([29]; dose 3.2 g/a): 3 (mortality of at least 40% and less than 70%) | A: barnyardgrass, herbicidal effect ([30]; dose 3.2 g/a): 3 (mortality of at least 40% and less than 70%) | O: beadstraw, herbicidal effect ([31]; dose 3.2 g/a): 0 (mortality of less than 5% (almost ineffective)) | E: giant foxtail, herbicidal effect ([32]; dose 3.2 g/a): 4 (mortality of at least 70% and less than 90%)

CCC(=O)N(c1ccccc1CN1COC(C)(C)CC1=O)S(=O)(=O)C(F)(F)F [II-19, 6,6-dimethyl-3-[2-(N-ethylcarbonyl-N-trifluoromethanesulfonyl)aminobenzyl]-1,3-oxazinan-4-one]
a: transplanted rice, effect on crop (evaluation scale 0-5) [1]: 0 (mortality of less than 5% (almost ineffective)) | C: ducksalad, herbicidal effect (evaluation scale 0-5) [2]: 5 (mortality of 90% or above (nearly complete death)) | B: bulrush, herbicidal effect (evaluation scale 0-5) [3]: 5 (mortality of 90% or above (nearly complete death)) | A: barnyardgrass, herbicidal effect (evaluation scale 0-5) [4]: 5 (mortality of 90% or above (nearly complete death)) | H: Italian ryegrass, herbicidal effect (evaluation scale 0-5) ([5]; dose 6.3 g/a): 5 (mortality of 90% or above (nearly complete death)) | N: common chickweed, herbicidal effect (evaluation scale 0-5) ([6]; dose 6.3 g/a): 4 (mortality of at least 70% and less than 90%) | G: water foxtail, herbicidal effect (evaluation scale 0-5) ([7]; dose 6.3 g/a): 5 (mortality of 90% or above (nearly complete death)) | F: wild oat, herbicidal effect (evaluation scale 0-5) ([8]; dose 6.3 g/a): 0 (mortality of less than 5% (almost ineffective)) | L: common lambsquater, herbicidal effect (evaluation scale 0-5) ([10]; dose 6.3 g/a): 0 (mortality of less than 5% (almost ineffective)) | K: redroot pigweed, herbicidal effect (evaluation scale 0-5) ([11]; dose 6.3 g/a): 2 (mortality of at least 20% and less than 40%) | D: large crabgrass, herbicidal effect (evaluation scale 0-5) ([13]; dose 6.3 g/a): 5 (mortality of 90% or above (nearly complete death)) | A: barnyardgrass, herbicidal effect (evaluation scale 0-5) ([15]; dose 6.3 g/a): 5 (mortality of 90% or above (nearly complete death)) | O: beadstraw, herbicidal effect (evaluation scale 0-5) ([16]; dose 6.3 g/a): 4 (mortality of at least 70% and less than 90%) | E: giant foxtail, herbicidal effect (evaluation scale 0-5) ([17]; dose 6.3 g/a): 2 (mortality of at least 20% and less than 40%) | C: ducksalad, herbicidal effect (evaluation scale 0-5) [18]: 5 (mortality of 90% or above (nearly complete death)) | B: bulrush, herbicidal effect (evaluation scale 0-5) [19]: 5 (mortality of 90% or above (nearly complete death)) | A: barnyardgrass, herbicidal effect (evaluation scale 0-5) [20]: 5 (mortality of 90% or above (nearly complete death)) | H: Italian ryegrass, herbicidal effect ([21]; dose 6.3 g/a): 4 (mortality of at least 70% and less than 90%) | N: common chickweed, herbicidal effect ([22]; dose 6.3 g/a): 4 (mortality of at least 70% and less than 90%) | G: water foxtail, herbicidal effect ([23]; dose 6.3 g/a): 5 (mortality of 90% or above (nearly complete death)) | F: wild oat, herbicidal effect [33]: 0 (mortality of less than 5% (almost ineffective)) | L: common lambsquater, herbicidal effect ([25]; dose 6.3 g/a): 0 (mortality of less than 5% (almost ineffective)) | D: large crabgrass, herbicidal effect ([28]; dose 6.3 g/a): 4 (mortality of at least 70% and less than 90%) | J: common ragweed, herbicidal effect ([29]; dose 6.3 g/a): 5 (mortality of 90% or above (nearly complete death)) | A: barnyardgrass, herbicidal effect ([30]; dose 6.3 g/a): 5 (mortality of 90% or above (nearly complete death)) | O: beadstraw, herbicidal effect ([31]; dose 6.3 g/a): 5 (mortality of 90% or above (nearly complete death)) | E: giant foxtail, herbicidal effect ([32]; dose 6.3 g/a): 4 (mortality of at least 70% and less than 90%)

— patent publication US20120029187A1, “HALOALKYLSULFONANILIDE DERIVATIVE” (Nissan Chemical Industries, Ltd., priority 2009, published 2012)
